Results on 24 molecules are retold here after patent US20260297042A1, “BIARYLAMIDE DERIVATIVES AND THEIR USE AS PKMYT1 INHIBITORS” (CANCER RESEARCH TECHNOLOGY LIMITED, priority 2023, published 2026).

The target of one experiment is T1, Human PKMYT1 (Homo sapiens, UniProt Q99640).
T1 construct: Human PKMYT1 75-362 was cloned as a TEV cleavable 6xHis fusion; 6xHis (TEV cleavable) (cleaved yes); made in house; host or cells: bacterial cells
T1 sequence (Q99640 75-362): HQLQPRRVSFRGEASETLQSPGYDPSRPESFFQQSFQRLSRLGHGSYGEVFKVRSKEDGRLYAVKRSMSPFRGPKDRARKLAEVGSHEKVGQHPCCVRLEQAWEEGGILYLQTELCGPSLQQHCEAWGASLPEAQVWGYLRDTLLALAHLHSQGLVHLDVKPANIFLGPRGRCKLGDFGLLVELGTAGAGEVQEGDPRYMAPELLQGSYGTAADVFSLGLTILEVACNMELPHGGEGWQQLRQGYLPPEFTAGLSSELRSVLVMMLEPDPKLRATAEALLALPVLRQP
Nature of the experiment: PKMYT1 biochemical ADP-Glo enzymatic assay. The conditions noted are these: ADP-Glo. The gist of the method:
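Purified untagged human PKMYT1 75-362 at 15 nM final was tested in HEPES pH 7.5 with MgCl2, EGTA, Brij-35 and 1% DMSO. Intrinsic ATPase activity was measured with 500 uM ATP over 60 min at 26° C. ADP-Glo luminescence was read and IC50 fitted from 10-point, 3-fold dilution curves.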
(In general: ADP-Glo first removes unused ATP, then detects ADP through luciferase.)

For the next experiment, the target named is T2, WEE1 (Homo sapiens, UniProt P30291).
T2 construct: purchased Thermo Fisher PR7373A
Description: Selectivity versus WEE1 assay (ADP-Glo enzymatic assay). The class given is biochemical. The settings on record: for IC50: ADP-Glo; for PKMYT1 vs. WEE1 selectivity: fold difference in selectivity for PKMYT1 over WEE1. The gist of the method: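 WEE1 at 15 nM final in 50 mM HEPES pH 7.5, 10 mM MgCl2, 1 mM EGTA, 0.01% Brij-35, 1% DMSO; reaction started with 30 µM ATP, 60 min at 26 °C. ADP-Glo luminescence; IC50 from dose-response curves, replicates within 3-fold and r2 >0.9.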

[1] abbreviates: PKMYT1 kinase domain 15 nM, banded values.
Setting [2] is: 15 nM PKMYT1 kinase domain, 500 µM ATP, 60 minutes at 26° C., banded.
Where [3] appears, read: 15 nM WEE1, 60 minutes at 26° C., banded.
The mark [4] stands for this setting: banded, ">N" = at least in this band but could be higher.

Molecules are shown by their SMILES.

T2 sequence (P30291 whole entry): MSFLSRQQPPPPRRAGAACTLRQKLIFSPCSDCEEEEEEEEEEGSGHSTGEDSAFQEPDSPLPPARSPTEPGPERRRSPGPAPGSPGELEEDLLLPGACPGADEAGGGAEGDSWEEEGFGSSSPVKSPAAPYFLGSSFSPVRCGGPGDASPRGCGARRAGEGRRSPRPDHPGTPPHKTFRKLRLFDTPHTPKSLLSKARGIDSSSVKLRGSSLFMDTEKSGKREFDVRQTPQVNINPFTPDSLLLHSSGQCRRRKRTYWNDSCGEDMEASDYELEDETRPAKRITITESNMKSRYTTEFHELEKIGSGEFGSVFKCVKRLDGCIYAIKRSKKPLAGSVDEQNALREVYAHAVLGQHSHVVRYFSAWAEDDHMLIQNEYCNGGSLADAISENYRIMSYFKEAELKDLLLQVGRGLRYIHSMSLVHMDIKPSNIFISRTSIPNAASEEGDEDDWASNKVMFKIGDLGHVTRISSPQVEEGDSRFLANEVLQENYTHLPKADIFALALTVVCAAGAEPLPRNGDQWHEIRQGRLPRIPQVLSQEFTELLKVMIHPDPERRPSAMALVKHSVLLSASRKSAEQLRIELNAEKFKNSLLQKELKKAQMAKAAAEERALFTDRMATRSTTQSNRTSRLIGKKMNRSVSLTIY

For `Cn1cc(Br)c(Nc2ncc(C(=O)Nc3c(F)ccc(O)c3Cl)s2)n1` [BAA-472, 2-((4-Bromo-1-methyl-1H-pyrazol-3-yl)amino)-N-(2-chloro-6-fluoro-3-hydroxyphenyl)thiazole-5-carboxamide], the 50% inhibitory concentration (IC50) (commonly the concentration needed to halve the response being measured) was < 50 nM at Human PKMYT1 (setting [1]) and > 11000 nM at WEE1 (WEE1 15 nM, banded values). The “PKMYT1 vs. WEE1 selectivity” value on WEE1 (banded) is given as “X (100-<1000 fold)”.
Take `Cc1ccc(O)c(C)c1NC(=O)c1cnc(Nc2c3cnccc3nn2C)s1` [BAA-248, N-(3-hydroxy-2,6-dimethylphenyl)-2-((2-methyl-2H-pyrazolo[4,3-c]pyridin-3-yl)amino)thiazole-5-carboxamide]: the IC50 on Human PKMYT1 (setting [2]) was < 50 nM; at WEE1 (setting [3]) it was 1000 to 11000 nM. The “PKMYT1 vs. WEE1 selectivity” value at WEE1 (setting [4]) is listed as “X (100-<1000 fold)”.
Take `Cc1ccc(O)c(C)c1NC(=O)c1cnc(Nc2nn(C)cc2C#N)s1` [BAA-496, 2-((4-cyano-1-methyl-1H-pyrazol-3-yl)amino)-N-(3-hydroxy-2,6-dimethylphenyl)thiazole-5-carboxamide]: the IC50 against Human PKMYT1 (setting [1]) was < 50 nM; on WEE1 (WEE1 15 nM, banded values) it was > 11000 nM. At WEE1 (banded), the “PKMYT1 vs. WEE1 selectivity” value is “Y (1000-5000 fold)”.
For `Cc1ccc(O)c(C)c1NC(=O)c1cnc(Nc2ccncn2)s1` [BAA-435, N-(3-hydroxy-2,6-dimethylphenyl)-2-(pyrimidin-4-ylamino)thiazole-5-carboxamide] the same measures were < 50 nM, > 11000 nM and “Y (1000-5000 fold)”.
In the case of `COCCOCCNC(=O)Cn1ccc(Nc2ncc(C(=O)Nc3c(C)ccc(O)c3C)s2)n1` [BAA-134, N-(3-hydroxy-2,6-dimethyl-phenyl)-2-[[1-[2-[2-(2-methoxyethoxy)ethylamino]-2-oxo-ethyl]pyrazol-3-yl]amino]thiazole-5-carboxamide], the 50% inhibitory concentration (IC50) was < 50 nM on Human PKMYT1 (setting [2]) and > 11000 nM at WEE1 (setting [3]). For the same molecule, at WEE1 (setting [4]), the “PKMYT1 vs. WEE1 selectivity” value is recorded as “Y (1000-5000 fold)”.
For `CCNC(=O)N1CC[C@@H](n2ccc(Nc3ncc(C(=O)Nc4c(C)ccc(O)c4C)s3)n2)C1` [BAA-109, 2-[[1-[(3R)-1-(Ethylcarbamoyl)pyrrolidin-3-yl]pyrazol-3-yl]amino]-N-(3-hydroxy-2,6-dimethyl-phenyl)thiazole-5-carboxamide] the same measures were 50 to 1000 nM, > 11000 nM and “>X (100-<1000 fold)”.
For the molecule `Cc1ccccc1Nc1ncc(C(=O)Nc2c(C)ccc(O)c2C)s1` [BAA-483, N-(3-hydroxy-2,6-dimethylphenyl)-2-(o-tolylamino)thiazole-5-carboxamide], the IC50 on Human PKMYT1 (setting [1]) was 50 to 1000 nM; against WEE1 (WEE1 15 nM, banded values), > 11000 nM. Besides, the “PKMYT1 vs. WEE1 selectivity” value at WEE1 (banded) is “X (100-<1000 fold)”.
Regarding `Cc1ccc(O)c(C)c1NC(=O)c1cnc(Nc2ccn([C@@H]3CCN(C(=O)CC(C)(C)C)C3)n2)s1` [BAA-081, 2-[[1-[(3R)-1-(3,3-dimethylbutanoyl)pyrrolidin-3-yl]pyrazol-3-yl]amino]-N-(3-hydroxy-2,6-dimethyl-phenyl)thiazole-5-carboxamide], the IC50 on Human PKMYT1 (setting [2]) was 50 to 1000 nM; against WEE1 (setting [3]), > 11000 nM. The “PKMYT1 vs. WEE1 selectivity” value on WEE1 (setting [4]) is “>X (100-<1000 fold)”.
For `Cc1ccc(O)c(C)c1NC(=O)c1cnc(Nc2ccn([C@@H]3CCN(C(=O)C(C)(C)C)C3)n2)s1` [BAA-080, 2-[[1-[(3R)-1-(2.2-Dimethylpropanoyl)pyrrolidin-3-yl]pyrazol-3-yl]amino]-N-(3-hydroxy-2,6-dimethyl-phenyl)thiazole-5-carboxamide], in that order: 50 to 1000 nM, > 11000 nM and “>X (100-<1000 fold)”.
Regarding `Cc1ccc(O)c(C)c1NC(=O)c1cnc(Nc2ccnc(-c3ccc(F)cc3)c2)s1` [BAA-304, 2-((2-(4-fluorophenyl)pyridin-4-yl)amino)-N-(3-hydroxy-2,6-dimethylphenyl)thiazole-5-carboxamide], the figures for the concentration for half-maximal inhibition (IC50) on Human PKMYT1 (setting [2]) and against WEE1 (setting [3]) were 50 to 1000 nM and > 11000 nM, respectively. Moreover, on WEE1 (setting [4]), the “PKMYT1 vs. WEE1 selectivity” value is reported as “X (100-<1000 fold)”.
Regarding `Cc1ccc(O)c(C)c1NC(=O)c1cnc(Nc2ccn(CC(=O)NCCCO)n2)s1` [BAA-159, N-(3-hydroxy-2,6-dimethyl-phenyl)-2-[[1-[2-(3-hydroxypropylamino)-2-oxo-ethyl]pyrazol-3-yl]amino]thiazole-5-carboxamide], the IC50 was < 50 nM at Human PKMYT1 (setting [2]) and > 11000 nM on WEE1 (setting [3]). Besides, the “PKMYT1 vs. WEE1 selectivity” value at WEE1 (setting [4]) is given as “Y (1000-5000 fold)”.
For the molecule `Cc1ccc(O)c(C)c1NC(=O)c1cnc(Nc2cccc3scnc23)s1` [BAA-486, 2-(benzo[d]thiazol-4-ylamino)-N-(3-hydroxy-2,6-dimethylphenyl)thiazole-5-carboxamide], the half-maximal inhibitory concentration (IC50) at Human PKMYT1 (setting [1]) was 50 to 1000 nM; on WEE1 (WEE1 15 nM, banded values) it was > 11000 nM. The “PKMYT1 vs. WEE1 selectivity” value at WEE1 (banded) is recorded as “X (100-<1000 fold)”.
With `Cc1ccc(O)c(C)c1NC(=O)c1cnc(Nc2nccn2C)s1` [BAA-552, N-(3-hydroxy-2,6-dimethylphenyl)-2-((1-methyl-1H-imidazol-2-yl)amino)thiazole-5-carboxamide], the IC50 at Human PKMYT1 (setting [1]) is 50 to 1000 nM; against WEE1 (WEE1 15 nM, banded values) it was > 11000 nM. Moreover, at WEE1 (banded), the “PKMYT1 vs. WEE1 selectivity” value is “X (100-<1000 fold)”.
As for `Cc1ccc(O)c(C)c1NC(=O)c1cnc(Nc2cc(Cl)nc(C(F)(F)F)n2)s1` [BAA-287, 2-((6-chloro-2-(trifluoromethyl)pyrimidin-4-yl)amino)-N-(3-hydroxy-2,6-dimethylphenyl)thiazole-5-carboxamide], the IC50 on Human PKMYT1 (setting [2]) is < 50 nM; against WEE1 (setting [3]), > 11000 nM. In addition, the “PKMYT1 vs. WEE1 selectivity” value at WEE1 (setting [4]) is recorded as “Y (1000-5000 fold)”.
For `Cc1ccc(O)c(C)c1NC(=O)c1cnc(Nc2ccn([C@@H]3CCN(C(=O)COc4ccccc4)C3)n2)s1` [BAA-088] the same measures were 50 to 1000 nM, > 11000 nM and “>X (100-<1000 fold)”.
For `Cc1ccc(O)c(C)c1NC(=O)c1cnc(Nc2ccn([C@@H]3CCN(C(=O)CC(C)C)C3)n2)s1` [BAA-096, N-(3-hydroxy-2,6-dimethyl-phenyl)-2-[[1-[(3R)-1-(3-methylbutanoyl)pyrrolidin-3-yl]pyrazol-3-yl]amino]thiazole-5-carboxamide] the same measures were 50 to 1000 nM, > 11000 nM and “>Y (1000-5000 fold)”.
For `Cc1ccc(O)c(C)c1NC(=O)c1cnc(Nc2ccn(CC(=O)NC3CCC3)n2)s1` [BAA-191] the same measures were < 50 nM, > 11000 nM and “Y (1000-5000 fold)”.
On to `Cc1ccc(O)c(C)c1NC(=O)c1cnc(Nc2cnn(C)c2C)s1` [BAA-520, 2-((1,5-dimethyl-1H-pyrazol-4-yl)amino)-N-(3-hydroxy-2,6-dimethylphenyl)thiazole-5-carboxamide], for which the IC50 on Human PKMYT1 (setting [1]) was 50 to 1000 nM; at WEE1 (WEE1 15 nM, banded values), > 11000 nM. For the same molecule, on WEE1 (banded), the “PKMYT1 vs. WEE1 selectivity” value was “X (100-<1000 fold)”.
For `CCc1ccccc1Nc1ncc(C(=O)Nc2c(C)ccc(O)c2C)s1` [BAA-484, 2-((2-ethylphenyl)amino)-N-(3-hydroxy-2,6-dimethylphenyl)thiazole-5-carboxamide], in that order: 50 to 1000 nM, > 11000 nM and “X (100-<1000 fold)”.
For `Cc1ccc(O)c(C)c1NC(=O)c1cnc(Nc2cccc3ccoc23)s1` [BAA-531, 2-(benzofuran-7-ylamino)-N-(3-hydroxy-2,6-dimethylphenyl)thiazole-5-carboxamide], in that order: 50 to 1000 nM, > 11000 nM and “Y (1000-5000 fold)”.
Turning to `Cc1ccc(O)c(C)c1NC(=O)c1cnc(Nc2ccn(CC(=O)N3CCN(CCO)CC3)n2)s1` [BAA-153], the concentration for half-maximal inhibition (IC50) at Human PKMYT1 (setting [2]) is < 50 nM; on WEE1 (setting [3]), > 11000 nM. Besides, the “PKMYT1 vs. WEE1 selectivity” value on WEE1 (setting [4]) was “Y (1000-5000 fold)”.
For `CCC(=O)NCCCNc1ncc(C(=O)Nc2c(C)ccc(O)c2C)s1` [BAA-076, N-(3-hydroxy-2,6-dimethyl-phenyl)-2-[3-(propanoylamino)propylamino]thiazole-5-carboxamide] the same measures were 1000 to 11000 nM, > 11000 nM and “>W (10-<100 fold)”.
For `Cc1ccc(O)c(C)c1NC(=O)c1cnc(Nc2ccn(CC(=O)N3CCC(O)CC3)n2)s1` [BAA-132, N-(3-Hydroxy-2,6-dimethyl-phenyl)-2-[[1-[2-(4-hydroxy-1-piperidyl)-2-oxo-ethyl]pyrazol-3-yl]amino]thiazole-5-carboxamide] the same measures were < 50 nM, > 11000 nM and “Y (1000-5000 fold)”.
For `Cc1ccc(O)c(C)c1NC(=O)c1cnc(Nc2ccc(S(C)(=O)=O)cc2)s1` [BAA-275, N-(3-Hydroxy-2,6-dimethylphenyl)-2-((4-(methylsulfonyl)phenyl)amino)thiazole-5-carboxamide] the same measures were < 50 nM, > 11000 nM and “X (100-<1000 fold)”.
